# US20230279433A1, “METHODS AND COMPOSITIONS FOR THE PRODUCTION OF ADENO-ASSOCIATED VIRUS” (priority 2021, published 2023)
# How the values were obtained:
# Assay type in all cases: cell-based
# [1] = system: AAV producer cells (HEK293 cells); experiment: AAV productivity with culture media additives supplemented two hours post-transfection (shake flasks)
# Experimental: For each parameter tested, HEK293 cells were expanded by shake flask culture with a target seed density of >0.25E6 viable cells/mL and a target final density of <6E6 viable cells/mL. […]
# (§1) Cell transfection was performed generally as described in Grieger et al. (2016) Molecular Therapy 24(2): 287-297. Briefly, transfection mixes were prepared by mixing calculated volumes of vector(s), transfection media, and polyethylenimine (PEI), all at ambient temperature, and allowed to equilibrate before the transfection mixes were added to the cells. Post-transfection bioreactor setpoint shifts were performed 2 hours post-transfection, and cells were harvested 72 hours post-transfection. […] Productivity was measured by vector genome titer and capsid yield. Vector genome (VG) titer was determined by droplet digital PCR (ddPCR) by standard methods using primer/probe sets specific to the transgene payload of the vector comprising the transgene. Capsid yield was determined using enzyme-linked immunosorbent assays (ELISAs) by standard methods with an immobilized antibody directed against an epitope of the capsid as encoded by the vector comprising the capsid sequences. Percentage of intact vector genomes (% Full capsids) was calculated by dividing the vector genome productivity determined by ddPCR by the number of capsids determined by ELISA. […]
# [2] = system: AAV producer cells (HEK293 cells); experiment: DMSO time course analysis of AAV productivity; settings: 1.5% (v/v) DMSO added two hours pre-transfection and up to 30 minutes post-transfection; compared to the other time points tested
# Experimental: For each parameter tested, HEK293 cells were expanded by shake flask culture with a target seed density of >0.25E6 viable cells/mL and a target final density of <6E6 viable cells/mL. Expanded cells were inoculated into an Applikon 3 L Glass Bioreactor containing the appropriate amount of cell culture medium prior to transfection at a 2 L working volume.
# as §1, with “cells.” for “cells. Post-transfection bioreactor setpoint shifts were performed 2 hours post-transfection, and cells were harvested 72 hours post-transfection.”
# second HEK293 cell line [3] = experiment: AAV productivity at different DMSO concentrations, shake flasks
# Experimental: (§2) Cell transfection was performed generally as described in Grieger et al. (2016) Molecular Therapy 24(2): 287-297. Briefly, transfection mixes were prepared by mixing calculated volumes of vector(s), transfection media, and polyethylenimine (PEI), all at ambient temperature, and allowed to equilibrate before the transfection mixes were added to the cells. Post-transfection bioreactor setpoint shifts were performed 2 hours post-transfection, and cells were harvested 72 hours post-transfection. Harvested cells were lysed as described in Grieger et al. (2016) Molecular Therapy 24(2): 287-297. Crude lysate samples were collected following centrifugation to remove cellular debris. Productivity was measured by vector genome titer and capsid yield. Vector genome (VG) titer was determined by droplet digital PCR (ddPCR) by standard methods using primer/probe sets specific to the transgene payload of the vector comprising the transgene. Capsid yield was determined using enzyme-linked immunosorbent assays (ELISAs) by standard methods with an immobilized antibody directed against an epitope of the capsid as encoded by the vector comprising the capsid sequences. Percentage of intact vector genomes (% Full capsids) was calculated by dividing the vector genome productivity determined by ddPCR by the number of capsids determined by ELISA.
# The conditions of DMSO supplementation were further tested using different representative AAV particles. Experiments were performed with a second HEK293 cell line according to the methods described in Example 1 using shake flasks.
# AAV productivity, in terms of vector genome (VG) titer (FIGS. 9A and 10A), capsid yield (FIGS. 9B and 10B), and percent intact vector genomes (% Full; FIGS. 9C and 10C), was measured as described in Example 1.
# second HEK293 cell line [4] = experiment: AAV productivity with DMSO supplementation 30-120 minutes post-transfection, 3 L single-use bioreactors; settings: DMSO 120 minutes vs 30 minutes post-transfection, pH 7.0, 39° C.
# Experimental: as §2
# Based on the findings above, the effects of post-transfection pH, and the effect of supplementing the culture media with DMSO at 30-120 minutes post-transfection were further tested using a different representative AAV particle. Experiments were performed with a second HEK293 cell line according to the methods described in Examples 1 and 5 using 3 L single-use bioreactors.
# AAV productivity, in terms of vector genome (VG) titer (FIG. 8A), capsid yield (FIG. 8B), and percent intact vector genomes (% Full; FIG. 8C), was measured as described in Example 1.
smiles,measurement,setting,value
"C[S+](C)[O-] [DMSO, dimethyl sulfoxide]",percent full capsids,"[1]; DMSO added two hours post-transfection, compared to the other additives",higher percent full capsids
same,VG titer,"[1]; additive added two hours post-transfection, all tested concentrations (Table 5), over control conditions without additive, ddPCR, crude lysate",general increase
same,percent yield of full capsids,[2],higher percent yield of full capsids
same,VG titer,"second HEK293 cell line [3]; FIG. 9A, 0.5% to 2.25% DMSO two hours post-transfection, up to a DMSO concentration of 1.5%",increased
same,capsid titer,"second HEK293 cell line [3]; FIG. 9B, 0.5% to 2.25% DMSO two hours post-transfection, up to a DMSO concentration of 1.5%",increased or comparable
same,percent full capsids,"second HEK293 cell line [3]; FIG. 9C, 0.5% to 2.25% DMSO two hours post-transfection",increased
same,VG titer,"second HEK293 cell line [3]; FIG. 10A, 0.75% DMSO two hours post-transfection compared with 0% DMSO",increased
same,VG titer,"second HEK293 cell line [3]; FIG. 10A, 1.5% DMSO two hours post-transfection compared with 0.75% DMSO",comparable
same,capsid titer,"second HEK293 cell line [3]; FIG. 10B, 0.75% DMSO two hours post-transfection compared with 0% DMSO",increased
same,capsid titer,"second HEK293 cell line [3]; FIG. 10B, 1.5% DMSO two hours post-transfection compared with 0.75% DMSO",decreased
same,percent full capsids,"second HEK293 cell line [3]; FIG. 10C, 0.75% DMSO two hours post-transfection compared with 0% DMSO",comparable
same,percent full capsids,"second HEK293 cell line [3]; FIG. 10C, 1.5% DMSO two hours post-transfection compared with 0.75% DMSO",increased
same,VG titers,second HEK293 cell line [4],similar
same,capsid yields,second HEK293 cell line [4],similar
same,intact vector genomes,second HEK293 cell line [4],similar
